The values that follow come from patent US6916905B2, “Dmt-Tic di-and tri-peptidic derivatives and related compositions and methods of use” (The United States of America as represented by the …, priority 2000, dated 2005).

Each structure is given as a SMILES string. Where two headings read alike, the source gives them in different places. Non-standard residues stand in square brackets, D forms with d. Residues, ends and D or L forms follow the SMILES beside them. ξ: configuration not given here. *: point of attachment. Dmt = Cc1cc(O)cc(C)c1C[C@H](N)C(=O)O; ξDmt = Cc1cc(O)cc(C)c1CC(N)C(=O)O; Tic = O=C(O)[C@@H]1Cc2ccccc2CN1; NHNH2 = NN*

One assay has as its target δ receptors (Mus musculus, UniProt P32300). How it is done: (§1) The functional bioactivity of the present inventive compounds was assessed using standard functional bioassays of δ and μ activity in MVD and GPI (Salvadori et al. (1995), supra; and Salvadori et al., J. Med. Chem. 36: 3748-3756 (1993)). […] Dose-response curves were obtained (Salvadori et al. (1995), supra) for both tissues. […] Data were derived from at least four independent tissue samples and dose-response curves from which the pA2 values were determined (Salvadori et al. (1997), supra) according to Arunlakshana and Schild (Br. J. Pharmacol. 14: 48-58 (1959)).

Assay [1] deals with T1, δ-opioid receptors (Rattus norvegicus, UniProt P33533).
T1 construct: assayed with a rat brain synaptosomal preparation (P2); from tissue; host or cells: rat brain P2 synaptosomes
The assay can be described thus: Rat brain synaptosome (P2) binding, δ antagonist [3H]N,N(CH3)2-Dmt-Tic-OH (Example 47). Particulars: for Antagonist K1μ/Kiδ: selectivity, Kiδ from antagonist radioligand [3H]N,N(CH3)2-Dmt-Tic-OH.
Method: (§2) Briefly, the agonists [^3H]DPDPE (30-60 Ci/mmol, NEN-DuPont) and [^3H]DAGO (30-60 Ci/mmol, Amersham) were used to label δ and μ sites, respectively, under saturation binding conditions (2 hrs at 22° C.). Excess unlabeled peptide (2 μM) established non-specific binding levels and the labeled membranes were rapidly filtered on Whatman GF/C glass fibre filters, thoroughly washed, dried and measured for radioactivity using CytoScint (ICN, Irvine, Calif.). […] The affinity constants (Ki) were calculated according to Cheng and Prusoff (Biochem. Pharmacol. 22: 3099-3108 (1973)).

A further assay deals with T2, μ-opioid receptors (Rattus norvegicus, UniProt P33535).
T2 construct: assayed with a rat brain synaptosomal preparation (P2); from tissue; host or cells: rat brain P2 synaptosomes
The assay can be described thus: Rat brain synaptosome (P2) binding, [3H]DAGO (Example 47).

The target in the next assay is μ receptors (Cavia porcellus, UniProt P97266). Kind of assay: Guinea pig ileum (GPI) functional bioassay (Example 48). How it is done: as §1
Assay [2] concerns the target T1, δ-opioid receptors. Kind of assay: Rat brain synaptosome (P2) binding, agonist [3H]DPDPE (Example 47). Particulars: for δ/μ selectivity, in words / δ affinity, in words: from Table II binding; for Agonist K1μ/Kiδ: selectivity, Kiδ from agonist radioligand [3H]DPDPE.
Method: as §2
Where [3] appears, read: δ antagonism, Ke = antilog of pA2.
[4] abbreviates: rat brain synaptosomes (P2), δ antagonist radioligand, mean ± SEM, n in parentheses, read-out: Kiδ(nM) [^3H]N,N(CH3)2-Dmt-Tic-OH.
Where [5] appears, read: rat brain synaptosomes (P2), mean ± SEM, n in parentheses, read-out: Kiμ (nM) [^3H]DAGO.
The mark [6] stands for this setting: rat brain synaptosomes (P2), mean ± SEM, n in parentheses, read-out: Kiδ(nM) [^3H]DPDPE.
Where [7] appears, read: MVD pA2 (range), δ antagonism against deltorphin C, mean (range).
[8] abbreviates: MVD Ke(nM), δ antagonism, Ke = antilog of pA2.

T2 sequence (P33535 whole entry): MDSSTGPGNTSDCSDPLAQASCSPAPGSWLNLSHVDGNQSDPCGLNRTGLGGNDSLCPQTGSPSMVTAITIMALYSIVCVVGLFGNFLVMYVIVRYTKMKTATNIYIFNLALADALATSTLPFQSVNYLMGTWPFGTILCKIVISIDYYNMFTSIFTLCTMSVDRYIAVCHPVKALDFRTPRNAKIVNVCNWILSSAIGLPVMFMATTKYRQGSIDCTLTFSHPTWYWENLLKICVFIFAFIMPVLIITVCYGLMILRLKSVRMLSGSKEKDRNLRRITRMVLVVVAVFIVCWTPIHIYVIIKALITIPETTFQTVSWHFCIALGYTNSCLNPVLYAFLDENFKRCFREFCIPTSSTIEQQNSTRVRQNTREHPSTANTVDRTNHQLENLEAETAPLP
μ receptors, sequence (P97266 whole entry, looked up): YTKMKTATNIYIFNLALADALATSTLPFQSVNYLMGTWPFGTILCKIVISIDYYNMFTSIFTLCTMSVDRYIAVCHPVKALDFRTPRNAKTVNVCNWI
δ receptors, sequence (P32300 whole entry): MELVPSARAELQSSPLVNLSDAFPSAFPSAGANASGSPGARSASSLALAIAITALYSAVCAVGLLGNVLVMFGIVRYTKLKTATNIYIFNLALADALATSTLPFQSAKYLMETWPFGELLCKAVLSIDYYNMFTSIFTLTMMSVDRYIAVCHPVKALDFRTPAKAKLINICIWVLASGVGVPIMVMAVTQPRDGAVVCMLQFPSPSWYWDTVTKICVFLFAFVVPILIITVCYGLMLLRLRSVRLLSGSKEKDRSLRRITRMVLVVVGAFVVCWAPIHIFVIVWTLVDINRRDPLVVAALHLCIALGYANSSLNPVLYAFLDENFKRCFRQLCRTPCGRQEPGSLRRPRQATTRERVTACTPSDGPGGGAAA
T1 sequence (P33533 whole entry): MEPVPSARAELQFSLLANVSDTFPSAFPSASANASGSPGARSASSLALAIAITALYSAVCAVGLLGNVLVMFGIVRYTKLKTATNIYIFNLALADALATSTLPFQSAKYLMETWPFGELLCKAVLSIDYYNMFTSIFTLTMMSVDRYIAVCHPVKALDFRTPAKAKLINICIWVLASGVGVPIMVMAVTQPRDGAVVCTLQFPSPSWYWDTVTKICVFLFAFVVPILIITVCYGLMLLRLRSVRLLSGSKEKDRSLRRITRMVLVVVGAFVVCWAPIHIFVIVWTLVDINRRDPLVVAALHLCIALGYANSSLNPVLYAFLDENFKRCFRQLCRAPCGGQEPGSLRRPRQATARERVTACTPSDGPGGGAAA

For the molecule `Cc1cc(O)cc(C)c1C[C@H](N)C(=O)N1Cc2ccccc2C[C@H]1C(=O)Nc1nnn[nH]1` [Compound 10, H-Dmt-Tic-NH-tetrazole-5-yl], the “bioactivity on MVD (δ), in words” value on δ receptors was “weak δ antagonist”. For the same molecule, the “MVD Ke” value on δ receptors (setting [3]) was determined as 36.3 nM. The Ki on δ-opioid receptors [1] (setting [4]) is 9.75 ± 1.73 nM; on μ-opioid receptors (setting [5]), 37 ± 4.5 nM; on δ-opioid receptors [2] (setting [6]) it was 0.7 ± 0.03 nM. Besides, the “Antagonist K1μ/Kiδ” value on δ-opioid receptors [1] turned out to be 4. For the same molecule, the “bioactivity on GPI (μ), in words” value at μ receptors is on record as “very minimal activity on GPI”. In addition, the “δ/μ selectivity, in words” value at δ-opioid receptors [2] is recorded as “essentially nonselective”. Moreover, on δ-opioid receptors [2], the “Agonist K1μ/Kiδ” value is given as 53.
With `Cc1cc(O)cc(C)c1CC(CN)C(=O)N1Cc2ccccc2C[C@H]1C(=O)O` (stereo partly drawn) [Compound 2, H-αDmt-Tic-OH], the Ki on δ-opioid receptors [1] (setting [4]) amounted to 475 ± 37 nM; at μ-opioid receptors (setting [5]), 1740 ± 16 nM; at δ-opioid receptors [2] (setting [6]), 11.2 ± 3.5 nM. Besides, the “Antagonist K1μ/Kiδ” value on δ-opioid receptors [1] amounted to 4. Further, on δ-opioid receptors [2], the “Agonist K1μ/Kiδ” value is reported as 155.
With `CCN(CC)[C@@H](Cc1c(C)cc(O)cc1C)C(=O)N1Cc2ccccc2C[C@H]1C(=O)O` [Compound 17, N,N(Et)2-DMT-Tic-OH], at δ-opioid receptors [2], the Ki amounted to 0.92 ± 0.19 nM and the “Agonist K1μ/Kiδ” value is given as 35.3 ± 1.96 (3-5).
Take `COC(=O)[C@H](C)NC(=O)[C@@H]1Cc2ccccc2CN1C(=O)[C@@H](N)Cc1c(C)cc(O)cc1C` [Compound 19, H-Dmt-Tic-Ala-OMe] (H-[Dmt]-[Tic]-Ala-OMe): the Ki on δ-opioid receptors [1] (setting [4]) came to 0.14 ± 0.04 nM; on μ-opioid receptors (setting [5]) it was 11.3 ± 1.87 nM; on δ-opioid receptors [2] (setting [6]) it was 0.23 ± 0.09 nM. In addition, the “Antagonist K1μ/Kiδ” value at δ-opioid receptors [1] came to 83. Also, the “Agonist K1μ/Kiδ” value at δ-opioid receptors [2] is on record as 48.
On to `Cc1cc(O)cc(C)c1C[C@@H](C(=O)N1Cc2ccccc2C[C@H]1C(=O)O)n1cccc1` [Compound 5, [des-NH2-α-pyrrole-1-yl]-Dmt-Tic-OH], for which, on δ receptors, the “bioactivity on MVD (δ), in words” value was “detrimental for all bioactivity measurements on MVD”. At δ receptors (setting [3]), the “MVD Ke” value amounted to 408 nM. Further, the Ki worked out at 9.94 ± 2.5 nM at δ-opioid receptors [1] (setting [4]), 5590 ± 411 nM at μ-opioid receptors (setting [5]) and 16.6 ± 2.5 nM at δ-opioid receptors [2] (setting [6]). The “Antagonist K1μ/Kiδ” value at δ-opioid receptors [1] is reported as 562. The “Agonist K1μ/Kiδ” value on δ-opioid receptors [2] was found to be 338.
As to `CNC(=O)[C@@H]1Cc2ccccc2CN1C(=O)[C@H](Cc1c(C)cc(O)cc1C)N(C)C` [Compound 13, N,N(Me)2-Dmt-Tic-NHMe], the Kb on δ receptors (setting [7]) is 0.407 nM; on μ receptors (μ antagonism, mean (range), read-out: GPI pA2 (range) (converted)), 389 nM. Besides, at δ receptors (setting [3]), the “MVD Ke” value was determined as 0.41 nM. In addition, the Ki was found to be 0.28 ± 0.02 nM at δ-opioid receptors [1] (setting [4]), 359 ± 62 nM at μ-opioid receptors (setting [5]) and 0.54 ± 0.07 nM at δ-opioid receptors [2] (setting [6]). Further, the “Antagonist K1μ/Kiδ” value at δ-opioid receptors [1] was 1268. At μ receptors, the “bioactivity on GPI (μ), in words” value is “weak μ antagonist”. For the same molecule, the EC50 on μ receptors (μ agonism, read-out: GPI ED50) is greater than 10000 nM. Moreover, at μ receptors (μ antagonism), the “GPI Ke” value worked out at 0.39 µM. In addition, on δ-opioid receptors [2], the “Agonist K1μ/Kiδ” value worked out at 669.
For `CNC(=O)[C@H](C)NC(=O)[C@@H]1Cc2ccccc2CN1C(=O)[C@@H](N)Cc1c(C)cc(O)cc1C` [Compound 18, H-Dmt-Tic-Ala-NHMe] (H-[Dmt]-[Tic]-Ala-NHMe), the EC50 is 1290 nM at δ receptors and 290 nM on μ receptors. In addition, the “bioactivity on MVD (δ), in words” value at δ receptors was “very weak δ and μ agonism”. Further, the Ki at δ-opioid receptors [1] (setting [4]) came to 0.12 ± 0.04 nM; at μ-opioid receptors (setting [5]), 5.75 ± 0.72 nM; at δ-opioid receptors [2] (setting [6]), 0.058 ± 0.01 nM. On δ-opioid receptors [1], the “Antagonist K1μ/Kiδ” value is recorded as 47. Besides, the “bioactivity on GPI (μ), in words” value on μ receptors was “very weak δ and μ agonism”. Besides, on δ-opioid receptors [2], the “Agonist K1μ/Kiδ” value was 100.
With `Cc1cc(O)cc(C)c1C[C@@H](C(=O)N1Cc2ccccc2C[C@@H]1C(=O)NC12CC3CC(CC(C3)C1)C2)N(C)C` [Compound 16, N,N(Me)2-Dmt-D-Tic-NH-1-adamantane], the “bioactivity on MVD (δ), in words” value at δ receptors is reported as “greatly reduced bioactivity on MVD”. At δ receptors (setting [7]), this molecule had a Kb of 123 nM. The “MVD Ke” value at δ receptors (setting [3]) is on record as 128 nM. Moreover, on δ-opioid receptors [1], the Ki was found to be 120 ± 25.9 nM and the “Antagonist K1μ/Kiδ” value came out at 0.42. This molecule also registered a Ki on μ-opioid receptors of 50.5 ± 2.6 nM. Moreover, on μ receptors, the EC50 turned out to be 4480 nM and the “bioactivity on GPI (μ), in words” value is “μM activity on GPI”. Further, at δ-opioid receptors [2], the Ki was 140 ± 30 nM; the “δ affinity, in words” value is recorded as “lost high δ affinity”; the “δ/μ selectivity, in words” value was “weakly μ selective”; the “Agonist K1μ/Kiδ” value was found to be 0.36.
Consider `Cc1cc(O)cc(C)c1C[C@H](N)C(=O)N1Cc2ccccc2C[C@H]1C(=O)NN` [Compound 6, H-Dmt-Tic-NHNH2] (H-[Dmt]-[Tic]-NHNH2), for which the Ki on δ-opioid receptors [1] (setting [4]) was determined as 42 ± 7.9 nM; at μ-opioid receptors (setting [5]), 85.1 ± 7.3 nM; at δ-opioid receptors [2] (setting [6]), 0.99 ± 0.04 nM. For the same molecule, the “Antagonist K1μ/Kiδ” value at δ-opioid receptors [1] was found to be 2. Further, the “δ/μ selectivity, in words” value on δ-opioid receptors [2] is “essentially nonselective”. Besides, the “Agonist K1μ/Kiδ” value at δ-opioid receptors [2] was 86.
Turning to `Cc1cc(O)cc(C)c1CC(N)C(=O)N1Cc2ccccc2C[C@H]1C(=O)O` (stereo partly drawn) [H-(R,S)Dmt-Tic-OH, reference compound] (H-[ξDmt]-[Tic]-OH), on δ receptors, the Kb was 6.76 nM. The Ki at μ-opioid receptors (setting [5]) was determined as 1160 ± 327 nM. Besides, the EC50 on μ receptors (μ agonism, read-out: GPI ED50) is greater than 10000 nM.
For `COC(=O)[C@@H]1Cc2ccccc2CN1C(=O)[C@@H](N)Cc1c(C)cc(O)cc1C` [Compound 8, H-Dmt-Tic-OMe] (H-[Dmt]-[Tic]-OMe), on δ-opioid receptors [1] (setting [4]), the Ki is 500 ± 90 nM. The “Antagonist K1μ/Kiδ” value at δ-opioid receptors [1] is on record as 0.8. Moreover, the Ki on μ-opioid receptors (setting [5]) stood at 423 ± 25 nM. For the same molecule, on δ-opioid receptors [2], the “δ affinity, in words” value is on record as “lost high δ affinity”; the “δ/μ selectivity, in words” value is “weakly μ selective”; the “Agonist K1μ/Kiδ” value is reported as 44. Besides, the Ki at δ-opioid receptors [2] (setting [6]) amounted to 9.64 ± 2.2 nM.
On δ receptors (setting [8]), `Cc1cc(O)cc(C)c1C[C@H](N)C(=O)N1Cc2ccccc2C[C@@H]1C(=O)NC12CC3CC(CC(C3)C1)C2` [Compound 12, H-Dmt-D-Tic-NH-1-adamantane] yielded a Kb greater than 10000 nM. At δ-opioid receptors [1], the Ki came out at 70.3 ± 7.25 nM and the “Antagonist K1μ/Kiδ” value was 0.004. For the same molecule, on μ-opioid receptors, the Ki came to 0.26 ± 0.08 nM. Further, at μ receptors, the EC50 came to 1680 nM and the “bioactivity on GPI (μ), in words” value is given as “μM activity on GPI”. Moreover, at δ-opioid receptors [2], the Ki came out at 24.5 ± 4.9 nM; the “δ affinity, in words” value is given as “lost high δ affinity”; the “δ/μ selectivity, in words” value is “moderately μ selective”; the “Agonist K1μ/Kiδ” value came to 0.01.
Take `Cc1cc(O)cc(C)c1C[C@H](N)C(=O)N1Cc2ccccc2C[C@H]1CC(=O)O` [Compound 1, H-Dmt-βTic-OH]: at δ receptors, the “bioactivity on MVD (δ), in words” value is on record as “highest δ-antagonist functional bioactivities”. The Kb at δ receptors (setting [8]) was 1.41 nM; on δ receptors (setting [7]), 1.58 nM. Further, the values for the Ki at δ-opioid receptors [1] (setting [4]), at μ-opioid receptors (setting [5]) and on δ-opioid receptors [2] (setting [6]) were 0.71 ± 0.04 nM, 418 ± 86 nM and 0.85 ± 0.2 nM, respectively. Further, the “Antagonist K1μ/Kiδ” value on δ-opioid receptors [1] was 590. The EC50 on μ receptors was greater than 10000 nM. At δ-opioid receptors [2], the “Agonist K1μ/Kiδ” value was 498.
On to `Cc1cc(O)cc(C)c1C[C@@H](C(=O)N1Cc2ccccc2C[C@H]1C(=O)O)N1CCCC1` [Compound 4, [des-NH2-α-pyrrolidine-1-yl]-Dmt-Tic-OH], for which the “bioactivity on MVD (δ), in words” value at δ receptors is recorded as “detrimental for all bioactivity measurements on MVD”. On δ receptors (setting [7]), this molecule had a Kb of 126 nM. At δ receptors (setting [3]), the “MVD Ke” value amounted to 121 nM. For the same molecule, the Ki at δ-opioid receptors [1] (setting [4]) amounted to 1.42 ± 0.14 nM; on μ-opioid receptors (setting [5]), 814 ± 65 nM; on δ-opioid receptors [2] (setting [6]) it was 1.62 ± 0.19 nM. Moreover, the “Antagonist K1μ/Kiδ” value on δ-opioid receptors [1] stood at 573. At μ receptors, this molecule gave an EC50 greater than 10000 nM. The “Agonist K1μ/Kiδ” value at δ-opioid receptors [2] worked out at 502.
